Reference: patent publication US9734283B2, “Genomic features associated with epigenetic control regions and transgenerational inheritance of epimutations” (priority 2011, dated 2017)

What was measured:
CD-1 and 129 strain mice = experiment: Transgenerational pathology analysis of adult onset disease (testis, prostate, kidney); type: in vivo, mouse
Method: (§1) The experimental design involved exposing gestating female inbred 129 strain and outbred CD-1 strain mice to daily intraperitoneal (IP) injections of vehicle (DMSO) (control) or vinclozolin at two doses, 100 mg/kg/day (V1) or 200 mg/kg/day (V2), between embryonic day 7-13 of gestation. In addition, a comparison was used with flutamide IP injections at a 20/mg/kg/day dose. The F1 generation males and females from different litters were bred to generate the F2 generation animals and F2 generation males and females from different litters were bred to generate the F3 generation animals, see Methods below. No sibling or cousin breedings occurred to avoid any inbreeding artifacts. Selected F1, F2 and F3 generation animals from postnatal 90 (P90) or 300 (P300) days of age were analyzed for testis, sperm and other pathologies as previously described.^11, 20, 21
(§2) Timed pregnant inbred 129 mice were given intraperitoneal injections with vinclozolin (100 mg/kg·day, 99% pure; ChemService, West Chester, Pa.), flutamide (20 mg/kg·day, Sigma, St. Louis, Mo.) or DMSO in sesame oil (vehicle) as controls, while timed pregnant outbred CD-1 mice were given intraperitoneal injections (IP) with vinclozolin doses: 100 mg/kg·day (V1) or 200 mg/kg·day (V2) or DMSO in sesame oil as controls.^21 Mice were given injections from embryonic day (E) E7-E13, with plug date equal to day 0. Controls were injected with vehicle (DMSO) dose and were matched with vinclozolin or flutamide treatment animals within the same mouse strain at the time of injection and were analyzed together throughout all three generations. The number of treated gestating females used were: for mouse 129 strain (3 controls and 4 vinclozolin treated); for mouse 129 strain flutamide 20 mg/kg/day dose (3 controls and 3 flutamide treated); and for mouse CD-1 strain (4 control and 3 vinclozolin treated (100 mg/kg/day (V1), 3 vinclozolin 200 mg/kg/day (V2)). F1 postnatal (P)P90 males and females from different litters of control, vinclozolin and flutamide treatment groups were bred to generate the F2 generation. F2 generation mice were bred to generate the F3 generation. Breedings were carefully monitored to eliminate any sibling or cousin breeding to remove potential phenotypes as a result of inbreeding. Male mice were collected and analyzed between P60-P90 (P90) for all generations and treatment groups. The number of P90 males collected for replicates for the mouse 129 strain vinclozolin treatment group (i.e. n value) were: for F1 (8 control, 11 vinclozolin); for F2 (11 control, 22 vinclozolin); and for F3 (11 control, 11 vinclozolin). […]

CD-1 mice ovaries = experiment: Identification of ovarian cysts in vinclozolin lineage females; type: in vivo, mouse; details: CD-1 females, all F1-F3 generations, V2 200 mg/kg/day; p<0.05
Method: Abnormalities in adult females of the F1, F2 and F3 generations were not extensively evaluated. However, at the time of sacrifice and dissection it was noticed that some females had cystic structures on their ovaries. These were grossly visible fluid-filled structures larger than normal Graffian follicles. If an animal had one or more cystic structures on one or both ovaries, then that female was considered to have cystic ovaries. A sub-set of 17 ovaries was also evaluated histologically, and there was concordance of ovaries labeled as cystic at gross dissection with the histologic presence of very large cystic structures. Cysts were defined as structures having a lining of none or a single layer of granulosa cells and an increased thickness of the surrounding stromal/thecal layer compared to what is found in large antral follicles.

129 and CD-1 mice = experiment: Litter size, sex ratio, body and tissue weights (toxicity); type: in vivo, mouse; details: transient embryonic exposure
Method: as §1, §2

[1] = system: sperm promoter epigenome (DNA methylation); details: previous comparative MeDIP-Chip study; cited from earlier work
rats = details: previous study; mammary tumors, prostate disease, kidney disease, testis and immune abnormalities; cited from earlier work
[2] = F3 generation vinclozolin lineage CD-1 mice, P300, p<0.02 vs controls

C=CC1(C)OC(=O)N(c2cc(Cl)cc(Cl)c2)C1=O (racemic) [vinclozolin, (RS)-3-(3,5-dichlorophenyl)-5-methyl-5-vinyl-1,3-oxazolidine-2,4-dione]
animals that developed at least one disease (CD-1 and 129 strain mice; [2]): 75% | animals with two or more disease states (CD-1 and 129 strain mice; [2]): 34% | proportion of mice exhibiting abnormal disease-like characteristics in testis, prostate, and kidney tissues (CD-1 and 129 strain mice; aged (P300) F3 generation CD-1 strain, vinclozolin lineage vs control): increases | adult onset disease of the prostate, kidney, testis or ovaries (CD-1 and 129 strain mice; inbred 129 strain mice, between treatment groups): no observable differences | ovarian cysts (CD-1 mice ovaries): significant increase | body weight, testis weight index, or kidney weight index (129 and CD-1 mice; F1-F3): no consistent transgenerational differences | litter size or male/female sex ratio (129 and CD-1 mice; all generations analyzed): no consistent transgenerational effects | number of promoters in rat sperm with transgenerational alteration in DNA methylation [1]: 48 | frequencies of adult onset disease states (rats): 20-50%
